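Five concentrations, 48 hours, 96-well plates. Abbreviation: GI50, concentration required for 50% inhibition of growth.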 The source made the active and inactive calls. Cut-off read from the data, not from the text of the source: active = GI50 up to about 1.1 µM and inactive = higher.
Columns and labels:
Test in all cases: NCI-60 cell line screen, 48 h
CAKI-1 = system: CAKI-1
COLO 205 = system: COLO 205
DU-145 = system: DU-145
HCT-116 = system: HCT-116
HL-60 = system: HL-60
KM12 = system: KM12
LOX IMVI = system: LOX IMVI
MCF7 = system: MCF7
MDA-N = system: MDA-N
NCI-H226 = system: NCI-H226
NCI-H23 = system: NCI-H23
OVCAR-4 = system: OVCAR-4
SF-268 = system: SF-268
SF-295 = system: SF-295
SF-539 = system: SF-539
SK-MEL-2 = system: SK-MEL-2
UO-31 = system: UO-31
HOP-62 = system: HOP-62
RXF 393 = system: RXF 393
SR = system: SR

Measured: GI50

OCc1cc2c([nH]c3ccccc32)c(C(O)CO)n1 (stereo unspecified)
inactive: CAKI-1 > 100 µM | COLO 205 > 100 µM | DU-145 > 100 µM | HCT-116 > 100 µM | HL-60 > 100 µM | KM12 > 100 µM | LOX IMVI > 100 µM | MCF7 > 100 µM | MDA-N > 100 µM | NCI-H226 > 100 µM | NCI-H23 > 100 µM | OVCAR-4 > 100 µM | SF-268 > 100 µM | SF-295 > 100 µM | SF-539 > 100 µM | SK-MEL-2 > 100 µM | UO-31 > 100 µM

O=C(/C=C1\Nc2ccc([N+](=O)[O-])cc2N=C1NC12CC3CC(CC(C3)C1)C2)c1ccccc1
inactive: CAKI-1 > 10 µM | COLO 205 > 10 µM | DU-145 > 10 µM | HOP-62 > 10 µM | KM12 > 10 µM | LOX IMVI > 10 µM | MCF7 > 10 µM | MDA-N > 10 µM | NCI-H226 5.5 µM | NCI-H23 > 10 µM | OVCAR-4 3.96 µM | RXF 393 6.53 µM | SF-268 > 10 µM | SF-295 > 10 µM | SF-539 5.41 µM | SK-MEL-2 > 10 µM | UO-31 > 10 µM

O=C(/C=C\c1ccccc1-c1ccccc1)c1ccccc1
inactive: CAKI-1 > 100 µM | COLO 205 > 100 µM | DU-145 > 100 µM | HCT-116 66.5 µM | HL-60 60.4 µM | HOP-62 > 100 µM | KM12 29.4 µM | MDA-N > 100 µM | NCI-H226 > 100 µM | NCI-H23 33.3 µM | OVCAR-4 11.1 µM | RXF 393 45.5 µM | SF-268 > 100 µM | SF-295 > 100 µM | SF-539 > 100 µM | SR > 100 µM | UO-31 > 100 µM

O=C(Nc1ccc(Cl)cc1)c1cc(S(=O)(=O)Nc2n[nH]c(=O)[nH]2)c(SSc2cc(Cl)c(C(=O)Nc3ccc(Cl)cc3)cc2S(=O)(=O)Nc2n[nH]c(=O)[nH]2)cc1Cl
inactive: CAKI-1 > 100 µM | COLO 205 > 100 µM | HCT-116 > 100 µM | HL-60 > 100 µM | HOP-62 > 100 µM | KM12 > 100 µM | LOX IMVI > 100 µM | MCF7 > 100 µM | MDA-N > 100 µM | NCI-H226 > 100 µM | NCI-H23 > 100 µM | OVCAR-4 > 100 µM | SF-268 > 100 µM | SF-295 > 100 µM | SK-MEL-2 > 100 µM | SR > 100 µM | UO-31 > 100 µM

CCOP(=O)(OCC)OC1c2[nH]ccc2-c2cc(C(=O)OC)[nH]c2C1OC (stereo unspecified)
inactive: CAKI-1 70.3 µM | COLO 205 > 100 µM | DU-145 > 100 µM | HCT-116 > 100 µM | HL-60 62.1 µM | HOP-62 87.3 µM | KM12 58.7 µM | LOX IMVI > 100 µM | MCF7 > 100 µM | MDA-N > 100 µM | NCI-H23 > 100 µM | OVCAR-4 > 100 µM | RXF 393 > 100 µM | SF-268 > 100 µM | SF-295 > 100 µM | SF-539 > 100 µM | SK-MEL-2 > 100 µM | UO-31 46.3 µM

CC1CC/C(=C\c2ccc(F)cc2)C2=C1C(c1ccc(F)cc1)NC(=S)N2 (stereo unspecified)
inactive: CAKI-1 57.8 µM | COLO 205 30.6 µM | DU-145 46.8 µM | HCT-116 32.9 µM | HL-60 38.5 µM | KM12 24.7 µM | LOX IMVI 48.2 µM | MCF7 53.3 µM | MDA-N 67.8 µM | NCI-H226 46.1 µM | NCI-H23 30.7 µM | RXF 393 25.2 µM | SF-268 91.4 µM | SF-295 54.7 µM | SF-539 > 100 µM | SK-MEL-2 28.2 µM | UO-31 23.2 µM

O=C(NN=C1CCN(Cc2ccccc2)CC1)C(O)(c1ccccc1)c1ccccc1
inactive: COLO 205 > 100 µM | DU-145 > 100 µM | HCT-116 > 100 µM | HL-60 > 100 µM | HOP-62 > 100 µM | KM12 > 100 µM | LOX IMVI > 100 µM | MCF7 > 100 µM | NCI-H226 > 100 µM | NCI-H23 > 100 µM | OVCAR-4 > 100 µM | RXF 393 > 100 µM | SF-268 > 100 µM | SF-295 > 100 µM | SF-539 > 100 µM | SR > 100 µM | UO-31 > 100 µM

CC1=NC(=N)N=C(C)C1/N=N/c1ccc2[nH]c(C)nc2c1 (stereo unspecified)
inactive: CAKI-1 > 100 µM | COLO 205 > 100 µM | DU-145 > 100 µM | HCT-116 > 100 µM | HL-60 > 100 µM | HOP-62 > 100 µM | KM12 > 100 µM | LOX IMVI > 100 µM | MCF7 > 100 µM | MDA-N > 100 µM | NCI-H226 > 100 µM | NCI-H23 > 100 µM | OVCAR-4 > 100 µM | RXF 393 > 100 µM | SF-268 > 100 µM | SF-295 > 100 µM | SF-539 > 100 µM | SK-MEL-2 > 100 µM

COC(=O)C(=O)C(C(=O)C(=O)Nc1cccc(OC)c1)c1nc2ccc(Cl)cc2nc1O (stereo unspecified)
inactive: CAKI-1 > 100 µM | COLO 205 > 100 µM | DU-145 > 100 µM | HCT-116 > 100 µM | HL-60 > 100 µM | KM12 > 100 µM | LOX IMVI > 100 µM | MCF7 > 100 µM | MDA-N > 100 µM | NCI-H226 > 100 µM | NCI-H23 > 100 µM | OVCAR-4 > 100 µM | SF-268 > 100 µM | SF-295 > 100 µM | SF-539 > 100 µM | SK-MEL-2 > 100 µM | UO-31 > 100 µM

NCCN1CCCCCc2ccccc21
inactive: CAKI-1 > 10 µM | COLO 205 > 10 µM | DU-145 > 10 µM | HCT-116 > 10 µM | HL-60 > 10 µM | HOP-62 > 10 µM | KM12 > 10 µM | LOX IMVI > 10 µM | MCF7 > 10 µM | NCI-H226 > 10 µM | NCI-H23 > 10 µM | OVCAR-4 > 10 µM | RXF 393 > 10 µM | SF-268 > 10 µM | SF-295 > 10 µM | SF-539 > 10 µM | SK-MEL-2 > 10 µM | SR > 10 µM | UO-31 > 10 µM

C#CCOC(=O)C(N)CS (stereo unspecified)
inactive: CAKI-1 > 100 µM | COLO 205 > 100 µM | DU-145 > 100 µM | HCT-116 > 100 µM | HL-60 > 100 µM | HOP-62 > 100 µM | KM12 > 100 µM | LOX IMVI > 100 µM | MCF7 > 100 µM | MDA-N > 100 µM | NCI-H226 > 100 µM | NCI-H23 > 100 µM | RXF 393 > 100 µM | SF-268 > 100 µM | SF-295 > 100 µM | SK-MEL-2 > 100 µM | UO-31 > 100 µM

Reference: ChEMBL document CHEMBL1201862, “PubChem BioAssay data set” (2004)
